Legend:
Assay type in all cases: ADME, organism-based, Cavia porcellus
Settings in all cases: in vivo
[1] = Cmax in Hartley guinea pig at 1 mg/kg, iv administered as single dose; set-up: dose 1 mg/kg, route intravenous
[2] = Tmax in Hartley guinea pig at 1 mg/kg, iv administered as single dose
[3] = Volume of distribution in Hartley guinea pig at 1 mg/kg, iv administered as single dose
[4] = AUC (0 to infinity) in Hartley guinea pig at 1 mg/kg, iv administered as single dose; set-up: dose 1 mg/kg, route intravenous, time infinity
[5] = Cmax in Hartley guinea pig at 10 mg/kg, po administered as single dose; set-up: dose 10 mg/kg, route oral
[6] = Tmax in Hartley guinea pig at 10 mg/kg, po administered as single dose
[7] = AUC (0 to infinity) in Hartley guinea pig at 10 mg/kg, po administered as single dose; set-up: dose 10 mg/kg, route oral, time infinity
[8] = Oral bioavailability in Hartley guinea pig at 10 mg/kg

Cmax [1] [ng/mL] | Tmax [2] [min] | Vd [3] [L/kg] | AUC(0-inf) [4] [ng·h/mL] | Cmax [5] [ng/mL] | Tmax [6] [min] | AUC(0-inf) [7] [ng·h/mL] | bioavailability [8] [%] | SMILES
534 | 11.4 | 3 | 547 | 358 | 40.2 | 571 | 10.4 | CC(C)S(=O)(=O)N1CCN(c2ccc(OC[C@@H]3CO[C@@](Cn4ccnc4)(c4ccc(Cl)cc4Cl)O3)cc2)CC1
446 | 6 | 4.4 | 560 | 710 | 70.2 | 3710 | 61.4 | CCS(=O)(=O)N1CCN(c2ccc(OC[C@@H]3CO[C@@](Cn4ccnc4)(c4ccc(Cl)cc4Cl)O3)cc2)CC1
514 | 4.8 | 2.9 | 715 | 1560 | 90 | 7580 | 98.5 | O=S(=O)(C1CC1)N1CCN(c2ccc(OC[C@@H]3CO[C@@](Cn4ccnc4)(c4ccc(Cl)cc4Cl)O3)cc2)CC1
2090 | 4.8 | 2.5 | 1160 | 1970 | 40.2 | 4600 | 39.5 | N#CCS(=O)(=O)N1CCN(c2ccc(OC[C@@H]3CO[C@@](Cn4ccnc4)(c4ccc(Cl)cc4Cl)O3)cc2)CC1
